Patent US7749967B2, “Peptides of a melanoma antigen and their use in diagnostic, prophylactic, and therapeutic methods” (The United States of America as represented by the …, priority 2001, dated 2010)

System: gp100170-190-specific T cell clone (HLA-DRβ1*0701 restricted)
Test: IFN-γ release by gp100-specific CD4+ T cell clones co-cultured with EBV-B cells pulsed with peptide or protein (ELISA)
Assay type: cell-based, human
Conditions: for Gp100 Peptide Identification (IFN-γ; pg/ml) 10 μM: peptide pulsed at 10 μM on EBV-B cells; for Gp100 Peptide Identification (IFN-γ; pg/ml) 10 μM / Gp100 Peptide Identification (IFN-γ; pg/ml) 50 μM: 24 h co-culture with T cell clone; for Gp100 Peptide Identification (IFN-γ; pg/ml) 50 μM: peptide pulsed at 50 μM on EBV-B cells
Description: The reactivity of nine representative positive clones is presented in FIG. 1A along with 4 representative negative wells (neg1 to neg4). Eight of the 46 positive clones were expanded and further characterized. […] To further characterize the reactivity, some of the clones were co-cultured with autologous B cells pulsed with a bacterially produced gp100 protein. […] In order to identify the MHC restriction element, antibodies known to bind and block the presentation by defined MHC molecules were used. Recognition by clones 6 and 8 of target cells pulsed with the gp100 protein was inhibited when using blocking antibodies against MHC class II and HLA-DR but the recognition was unchanged when using a blocking MHC class I antibody. […] By using HLA-DR matched B cells, the restriction element was identified as HLA-DRβ1*0701 (patient A is HLA-DRβ1*0701 and *1601; FIG. 2).
To find the epitope recognized, an overlapping gp100 peptide library consisting of 68 peptides of 17 or 21 residues overlapping by 10-12 amino acids was prepared. The autologous EBV-B cells were pulsed with the peptide library and used as targets in a T cell recognition assay using three different T cell clones.
Finally, several peptides were synthesized in order to define an optimal HLA-DRβ1*0701 epitope (Rammensee, H. G. Immunogenetics 41:178-228, 1995; Chicz et al. J. Exp. Med. 178:27-47, 1993). […] Finally, substitutions were made at position 5 of the gp100174-394 peptide presuming that this is position 1 according to the defined motif for HLA-DRβ1*0701 (SYFPEITHI web site, http://syfpeithi.de/). However, none of the peptides were better recognized when pulsed at 10 μM or 1 μM compared to the wild type gp100174-394 peptide.
The gp100 peptide library consisted of 68 peptides of 17 to 21 residues overlapping by 10 to 12 amino acids. The peptides were synthesized by solid phase FMOC methodology as previously described (Parkhurst et al. J. Immunol. 157:2539-2548, 1996). A control peptide derived from the Ig kappa chain known to bind to HLA-DRβ1*0701 was also prepared (Chicz et al. J. Exp. Med. 178:27-47, 1993). Recombinant gp100 protein was made and purified as previously described Touloukian et al. J. Immunol. 164:3535-3542, 2000). Recombinant NY-ESO-1 protein is another tumor antigen (Chen, Y T and L J Old. Cancer J. Sci. Am. 5:16-17, 1999) used as negative control and was made and purified as previously described (Zeng et al. J. Immunol. 165:1153-1159, 2000). EBV-B cells (1×10^5) were pulsed with gp100-purified protein or peptides for 18 hours in 96 well flat-bottom plates and T cells were added directly to the pulsed-B cells for a 24 hours recognition assay. In some experiments, EBV-B cells (5×10^5) were pulsed in 48 well plates for 18 hours and cells were washed twice with PBS. T cells were then co-cultured with the pulsed EBV-B cells in 96 well flat-bottom plates for 24 hours. Supernatants were harvested and human IFN-γ was assayed by ELISA using a commercially available kit (R&D Inc.).
Fifty to one hundred thousand responder cells and 4×10^4-10^5 stimulator cells were mixed in 300 ul of AIM-V medium containing […] IL-2 per well in a 96 flat-well microplate. Target cells (1×10^5) were incubated with 1×10^5 specific T cells in 250 μl of T cell medium (AIM-V-based medium) in 96 well flat-bottom plates. Supernatants were harvested after 24 h and human IFN-γ was assayed by ELISA using a commercially available kit (R&D, Inc.; Minneapolis, Minn.).

For GTGRAMLGTHTMEVTVYH [SEQ ID NO:10], the “Gp100 Peptide Identification (IFN-γ; pg/ml) 10 μM” value was 18,770 pg/ml and the “Gp100 Peptide Identification (IFN-γ; pg/ml) 50 μM” value was >25,000 pg/ml.

In the case of GTGRAMLGTHTMEVTVYHRRG [SEQ ID NO:9], the “Gp100 Peptide Identification (IFN-γ; pg/ml) 10 μM” value is reported as 22,910 pg/ml and the “Gp100 Peptide Identification (IFN-γ; pg/ml) 50 μM” value is reported as >25,000 pg/ml.

For IGTGRAMLGTHTMEVTVYH [SEQ ID NO:11], the “Gp100 Peptide Identification (IFN-γ; pg/ml) 10 μM” value was 17,590 pg/ml and the “Gp100 Peptide Identification (IFN-γ; pg/ml) 50 μM” value was >25,000 pg/ml.

With IGTGRAMLGTHTMEVTVYHRR [SEQ ID NO:4] the “Gp100 Peptide Identification (IFN-γ; pg/ml) 10 μM” value was 17,050 pg/ml and the “Gp100 Peptide Identification (IFN-γ; pg/ml) 50 μM” value was >25,000 pg/ml.

For LSIGTGRAMLGTHTMEVTVYH [SEQ ID NO:3], the “recognition in overlapping gp100 peptide library screen” value (68 peptides, all at 100 μM, autologous EBV-B cells, one of three T cell clones, FIG. 3A) was “specifically recognized”, the “peptide concentration below which recognition was undetectable (titration)” value (gp100170-190-specific T cell clone, peptide pulsed on EBV-B cells, FIG. 3B) was 4 to 10 µM and the “Gp100 Peptide Identification (IFN-γ; pg/ml) 10 μM” value was 21,000 pg/ml. For the same sequence, the “Gp100 Peptide Identification (IFN-γ; pg/ml) 50 μM” value was >25,000 pg/ml.

In the case of MLGTHTMEVTVYHRRGSRSYV [SEQ ID NO:16], the “Gp100 Peptide Identification (IFN-γ; pg/ml) 10 μM” value is reported as 52 pg/mL and the “Gp100 Peptide Identification (IFN-γ; pg/ml) 50 μM” value is reported as 5,940 pg/ml.

With PVSGLSIGTGRAMLGTHTMEV [SEQ ID NO:20] the “Gp100 Peptide Identification (IFN-γ; pg/ml) 10 μM” value was under 8 pg/mL and the “Gp100 Peptide Identification (IFN-γ; pg/ml) 50 μM” value was 19 pg/mL.

For RAMLGTHTMEVTVYHRRGSRS [SEQ ID NO:15], the “Gp100 Peptide Identification (IFN-γ; pg/ml) 10 μM” value was 912 pg/mL and the “Gp100 Peptide Identification (IFN-γ; pg/ml) 50 μM” value was 15,230 pg/ml.

For SGLSIGTGRAMLGTHTMEVTV [SEQ ID NO:14], the “Gp100 Peptide Identification (IFN-γ; pg/ml) 10 μM” value was 1,655 pg/ml and the “Gp100 Peptide Identification (IFN-γ; pg/ml) 50 μM” value was 4,200 pg/ml.

SIGTGRAMLGTHTMEVTVYH [SEQ ID NO:12] was tested, and the “Gp100 Peptide Identification (IFN-γ; pg/ml) 10 μM” value was 20,710 pg/ml and the “Gp100 Peptide Identification (IFN-γ; pg/ml) 50 μM” value was >25,000 pg/ml.

For SIGTGRAMLGTHTMEVTVYHR [SEQ ID NO:13], the “Gp100 Peptide Identification (IFN-γ; pg/ml) 10 μM” value was 12,210 pg/ml and the “Gp100 Peptide Identification (IFN-γ; pg/ml) 50 μM” value was >25,000 pg/ml.

With TGRAFLGTHTMEVTVYHRRGS [SEQ ID NO:17] the “Gp100 Peptide Identification (IFN-γ; pg/ml) 10 μM” value was 19,390 pg/ml and the “Gp100 Peptide Identification (IFN-γ; pg/ml) 50 μM” value was >25,000 pg/ml.

In the case of TGRALLGTHTMEVTVYHRRGS [SEQ ID NO:18], the “Gp100 Peptide Identification (IFN-γ; pg/ml) 10 μM” value is reported as 23,140 pg/ml and the “Gp100 Peptide Identification (IFN-γ; pg/ml) 50 μM” value is reported as >25,000 pg/ml.

In the case of TGRAMLGTHTMEVTVYH [SEQ ID NO:2], the “Gp100 Peptide Identification (IFN-γ; pg/ml) 10 μM” value is reported as 14,010 pg/ml and the “Gp100 Peptide Identification (IFN-γ; pg/ml) 50 μM” value is reported as >25,000 pg/ml.

With TGRAMLGTHTMEVTVYHR [SEQ ID NO:6] the “Gp100 Peptide Identification (IFN-γ; pg/ml) 10 μM” value was 11,100 pg/ml and the “Gp100 Peptide Identification (IFN-γ; pg/ml) 50 μM” value was >25,000 pg/ml.

In the case of TGRAMLGTHTMEVTVYHRR [SEQ ID NO:7], the “Gp100 Peptide Identification (IFN-γ; pg/ml) 10 μM” value is reported as 11,550 pg/ml and the “Gp100 Peptide Identification (IFN-γ; pg/ml) 50 μM” value is reported as >25,000 pg/ml.

In the case of TGRAMLGTHTMEVTVYHRRG [SEQ ID NO:8], the “Gp100 Peptide Identification (IFN-γ; pg/ml) 10 μM” value is reported as 17,910 pg/ml and the “Gp100 Peptide Identification (IFN-γ; pg/ml) 50 μM” value is reported as >25,000 pg/ml.

In the case of TGRAMLGTHTMEVTVYHRRGS [SEQ ID NO:5], the “Gp100 Peptide Identification (IFN-γ; pg/ml) 10 μM” value is reported as 17,140 pg/ml and the “Gp100 Peptide Identification (IFN-γ; pg/ml) 50 μM” value is reported as >25,000 pg/ml.

For TGRAYLGTHTMEVTVYHRRGS [SEQ ID NO:19], the “Gp100 Peptide Identification (IFN-γ; pg/ml) 10 μM” value was 11,640 pg/ml and the “Gp100 Peptide Identification (IFN-γ; pg/ml) 50 μM” value was >25,000 pg/ml.
